Reference: ChEMBL document CHEMBL4270588, “Bioactive heterocycles containing a 3,4,5-trimethoxyphenyl fragment exerting potent antiproliferative activity through microtubule destabilization” (Eur J Med Chem, 2018)
Active and inactive are the calls of the source. The rule behind the calls is not given here.

Experiments:
PC-3 = assay: Antiproliferative activity against human PC3 cells after 48 hrs by MTT assay; type: functional, cell-based; details: PC-3, 48 h
ECa-109 cell line = assay: Antiproliferative activity against human EC109 cells after 48 hrs by MTT assay; type: functional, cell-based; details: ECa-109, 48 h
MGC-803 [1] = assay: Antiproliferative activity against human MGC803 cells after 48 hrs by MTT assay; type: functional, cell-based; details: MGC-803, 48 h
Homo sapiens [2] = organism: Homo sapiens; assay: Inhibition of EBI binding to beta-tubulin colchicine binding site in human MGC803 cells at 5 uM preincubated for 2 hrs followed by EBI addition and measured after 2 hrs by Western blot analysis; type: cell-based
Tubulin [3] = assay: Inhibition of tubulin polymerization (unknown origin) by turbidimetric method; type: protein-complex assay, Homo sapiens
MGC-803 [4] = assay: Induction of apoptosis in human MGC803 cells assessed as necrotic cells at 200 nM after 48 hrs by Annexin-V-FITC/propidium iodide staining based flow cytometry (reference value: 0.1%); type: functional
MGC-803 [5] = assay: Induction of apoptosis in human MGC803 cells assessed as decrease in XIAP level after 48 hrs by Western blot analysis; type: functional, cell-based
MGC-803 [6] = assay: Cell cycle arrest in human MGC803 cells assessed as accumulation at S phase at 400 nM after 48 hrs by propidium iodide staining based flow cytometry (reference value: 24.8%); type: functional
MGC-803 [7] = assay: Induction of apoptosis in human MGC803 cells assessed as necrotic cells at 400 nM after 48 hrs by Annexin-V-FITC/propidium iodide staining based flow cytometry (reference value: 0.1%); type: functional
MGC-803 [8] = assay: Disruption of mitochondrial membrane potential in human MGC803 cells after 48 hrs by JC1 staining based flow cytometry; type: functional, cell-based
MGC-803 [9] = assay: Induction of apoptosis in human MGC803 cells assessed as decrease in PARP level after 48 hrs by Western blot analysis; type: functional, cell-based
MGC-803 [10] = assay: Disruption of mitochondrial membrane potential in human MGC803 cells assessed as intact mitochondrial membrane at 200 nM after 48 hrs by JC1 staining based flow cytometry (reference value: 3.9%); type: functional
MGC-803 [11] = assay: Induction of apoptosis in human MGC803 cells assessed as early apoptotic cells at 600 nM after 48 hrs by Annexin-V-FITC/propidium iodide staining based flow cytometry (reference value: 2.5%); type: functional
MGC-803 [12] = assay: Induction of apoptosis in human MGC803 cells assessed as live cells at 200 nM after 48 hrs by Annexin-V-FITC/propidium iodide staining based flow cytometry (reference value: 96.4%); type: functional
MGC-803 [13] = assay: Cell cycle arrest in human MGC803 cells assessed as down regulation of cyclin B1 expression after 48 hrs by Western blot analysis; type: functional, cell-based
MGC-803 [14] = assay: Cell cycle arrest in human MGC803 cells assessed as accumulation at G1 phase at 200 nM after 48 hrs by propidium iodide staining based flow cytometry (reference value: 62.61%); type: functional
MGC-803 [15] = assay: Cell cycle arrest in human MGC803 cells assessed as accumulation at G1 phase at 400 nM after 48 hrs by propidium iodide staining based flow cytometry (reference value: 62.61%); type: functional
Tubulin [16] = assay: Inhibition of tubulin polymerization (unknown origin) measured every 5 mins by fluorescence assay; type: protein-complex assay, Homo sapiens
MGC-803 [17] = assay: Cell cycle arrest in human MGC803 cells assessed as down regulation of CDK1 expression after 48 hrs by Western blot analysis; type: functional, cell-based
MGC-803 [18] = assay: Disruption of mitochondrial membrane potential in human MGC803 cells assessed as intact mitochondrial membrane at 400 nM after 48 hrs by JC1 staining based flow cytometry (reference value: 3.9%); type: functional
MGC-803 [19] = assay: Disruption of mitochondrial membrane potential in human MGC803 cells assessed as intact mitochondrial membrane at 600 nM after 48 hrs by JC1 staining based flow cytometry (reference value: 3.9%); type: functional
MGC-803 [20] = assay: Induction of apoptosis in human MGC803 cells assessed as late apoptotic cells at 600 nM after 48 hrs by Annexin-V-FITC/propidium iodide staining based flow cytometry (reference value: 1%); type: functional
MGC-803 [21] = assay: Induction of apoptosis in human MGC803 cells assessed as late apoptotic cells at 200 nM after 48 hrs by Annexin-V-FITC/propidium iodide staining based flow cytometry (reference value: 1%); type: functional
MGC-803 [22] = assay: Cell cycle arrest in human MGC803 cells assessed as accumulation at S phase at 200 nM after 48 hrs by propidium iodide staining based flow cytometry (reference value: 24.8%); type: functional
MGC-803 [23] = assay: Disruption of mitochondrial membrane potential in human MGC803 cells assessed as collapse of the mitochondrial membrane potential at 600 nM after 48 hrs by JC1 staining based flow cytometry (reference value: 96.1%); type: functional
MGC-803 [24] = assay: Induction of apoptosis in human MGC803 cells assessed as decrease in Bcl2 level after 48 hrs by Western blot analysis; type: functional, cell-based
MGC-803 [25] = assay: Induction of apoptosis in human MGC803 cells assessed as late apoptotic cells at 400 nM after 48 hrs by Annexin-V-FITC/propidium iodide staining based flow cytometry (reference value: 1%); type: functional
MGC-803 [26] = assay: Cell cycle arrest in human MGC803 cells assessed as accumulation at G2 phase at 400 nM after 48 hrs by propidium iodide staining based flow cytometry (reference value: 8.76%); type: functional
MGC-803 [27] = assay: Induction of apoptosis in human MGC803 cells assessed as early apoptotic cells at 400 nM after 48 hrs by Annexin-V-FITC/propidium iodide staining based flow cytometry (reference value: 2.5%); type: functional
MGC-803 [28] = assay: Disruption of mitochondrial membrane potential in human MGC803 cells assessed as collapse of the mitochondrial membrane potential at 400 nM after 48 hrs by JC1 staining based flow cytometry (reference value: 96.1%); type: functional
MGC-803 [29] = assay: Induction of apoptosis in human MGC803 cells assessed as live cells at 600 nM after 48 hrs by Annexin-V-FITC/propidium iodide staining based flow cytometry (reference value: 96.4%); type: functional
Homo sapiens [30] = organism: Homo sapiens; assay: Inhibition of EBI binding to beta-tubulin colchicine binding site in human MGC803 cells at […] preincubated for 2 hrs followed by EBI addition and measured after 2 hrs by Western blot analysis; type: cell-based
MGC-803 [31] = assay: Cell cycle arrest in human MGC803 cells assessed as accumulation at G2 phase at 200 nM after 48 hrs by propidium iodide staining based flow cytometry (reference value: 8.76%); type: functional
MGC-803 [32] = assay: Induction of apoptosis in human MGC803 cells assessed as necrotic cells at 600 nM after 48 hrs by Annexin-V-FITC/propidium iodide staining based flow cytometry (reference value: 0.1%); type: functional
Tubulin (Homo sapiens) = Tubulin (Homo sapiens) (UniProt P68371+Q9H4B7+P0DPH7+P68366+Q13509+Q71U36+P04350+Q3ZCM7+P07437+P68363+Q9BQE3+Q6PEY2+Q13885+Q9BVA1+Q9BUF5); assay: Inhibition of tubulin polymerization in human MGC803 cells assessed as depolymerization of interphase microtubules at 600 nM after 4 to 8 hrs by DAPI staining based microscopic analysis; type: cell-based
MGC-803 [33] = assay: Induction of apoptosis in human MGC803 cells assessed as live cells at 400 nM after 48 hrs by Annexin-V-FITC/propidium iodide staining based flow cytometry (reference value: 96.4%); type: functional
MGC-803 [34] = assay: Disruption of mitochondrial membrane potential in human MGC803 cells assessed as collapse of the mitochondrial membrane potential at 200 nM after 48 hrs by JC1 staining based flow cytometry (reference value: 96.1%); type: functional
MGC-803 [35] = assay: Induction of apoptosis in human MGC803 cells assessed as early apoptotic cells at 200 nM after 48 hrs by Annexin-V-FITC/propidium iodide staining based flow cytometry (reference value: 2.5%); type: functional

COc1ccc(CN(C(=O)CSc2nc3ccccc3[nH]2)c2cc(OC)c(OC)c(OC)c2)cc1
IC50 (PC-3): 14.3 µM
IC50 (ECa-109 cell line): 42.6 µM
IC50 (MGC-803 [1]): 1.23 µM

COc1cc2c(c(OC)c1OC)-c1ccc(OC)c(=O)cc1[C@@H](NC(C)=O)CC2 [COLCHICINE]
IC50 (PC-3): 0.13 µM
inhibition (Homo sapiens [2]): Active
IC50 (ECa-109 cell line): 1.24 µM
IC50 (MGC-803 [1]): 0.177 µM

Cc1ccc(S(=O)(=O)NCc2cn(Cc3cccc(Oc4ccccc4)c3)nn2)cc1
IC50 (Tubulin [3]): 2.41 µM

COc1ccc(CN(C(=O)CCCCSc2nc3ccccc3o2)c2cc(OC)c(OC)c(OC)c2)cc1
IC50 (PC-3): 45.6 µM
IC50 (ECa-109 cell line): 7.65 µM
IC50 (MGC-803 [1]): 1.36 µM

COc1ccc(CN(C(=O)CSc2ccccn2)c2cc(OC)c(OC)c(OC)c2)cc1
IC50 (PC-3): 7.51 µM
IC50 (ECa-109 cell line): 16 µM
IC50 (MGC-803 [1]): 2.41 µM

COc1ccc(CN(C(=O)CSc2nc3ccc(OC)cc3s2)c2cc(OC)c(OC)c(OC)c2)cc1
IC50 (PC-3): 20.2 µM
IC50 (ECa-109 cell line): > 80 µM
IC50 (MGC-803 [1]): 1.27 µM

COc1ccc(CN(C(=O)CSc2nnnn2C)c2cc(OC)c(OC)c(OC)c2)cc1
IC50 (PC-3): 10.5 µM
IC50 (ECa-109 cell line): 5.54 µM
IC50 (MGC-803 [1]): 2.49 µM

COc1ccc(CN(C(=O)CSc2nc3ccccc3o2)c2cc(OC)c(OC)c(OC)c2)cc1
Activity (MGC-803 [4]): 0.1%
Activity (MGC-803 [5]): Dose-dependent effect
Activity (MGC-803 [6]): 22.46%
Activity (MGC-803 [7]): 1.9%
Activity (MGC-803 [8]): Dose-dependent effect
Activity (MGC-803 [9]): Dose-dependent effect
Activity (MGC-803 [10]): 96.1%
Activity (MGC-803 [11]): 4.9%
Activity (MGC-803 [12]): 95.9%
Activity (MGC-803 [13]): Dose-dependent effect
Activity (MGC-803 [14]): 61.68%
IC50 (PC-3): 3.53 µM
Activity (MGC-803 [15]): 52.55%
IC50 (Tubulin [16]): 3.35 µM
IC50 (ECa-109 cell line): 24.8 µM
Activity (MGC-803 [17]): Dose-dependent effect
Activity (MGC-803 [18]): 60.1%
Activity (MGC-803 [19]): 47.2%
Activity (MGC-803 [20]): 30.3%
Activity (MGC-803 [21]): 1.1%
Activity (MGC-803 [22]): 23.29%
Activity (MGC-803 [23]): 52.8%
Activity (MGC-803 [24]): Dose-dependent effect
Activity (MGC-803 [25]): 4.3%
Activity (MGC-803 [26]): 20.71%
Activity (MGC-803 [27]): 4.1%
Activity (MGC-803 [28]): 39.9%
IC50 (MGC-803 [1]): 0.45 µM
Activity (MGC-803 [29]): 61.7%
inhibition (Homo sapiens [30]): Active
Activity (MGC-803 [31]): 12.13%
Activity (MGC-803 [32]): 3.1%
inhibition (Tubulin (Homo sapiens)): Active
Activity (MGC-803 [33]): 89.7%
Activity (MGC-803 [34]): 3.9%
Activity (MGC-803 [35]): 2.8%

COc1ccc(CN(C(=O)CCCSc2nc3ccccc3o2)c2cc(OC)c(OC)c(OC)c2)cc1
IC50 (PC-3): 32.7 µM
IC50 (ECa-109 cell line): 11 µM
IC50 (MGC-803 [1]): 1.29 µM

COc1ccc(CN(C(=O)CSc2nncs2)c2cc(OC)c(OC)c(OC)c2)cc1
IC50 (PC-3): 5.53 µM
IC50 (ECa-109 cell line): 9.84 µM
IC50 (MGC-803 [1]): 1.15 µM

COc1ccc(CN(C(=O)CCSc2nc3ccccc3o2)c2cc(OC)c(OC)c(OC)c2)cc1
IC50 (PC-3): 20.2 µM
IC50 (ECa-109 cell line): 12.6 µM
IC50 (MGC-803 [1]): 0.64 µM
